What was measured:
[1] = system: red blood cells; experiment: Hemolysis test; format: cell-based, mouse; details: 0.15–5 mg mL^−1, 37 °C, 1 hour
Method: The mixture was then centrifuged at 3000 rpm for 10 min. Finally, UV spectrophotometer was used to monitor the absorbance at 541 nm to investigate the hemolysis. Deionized water and 0.9% NaCl were used as the positive and negative control, respectively. The hemolysis ratio was calculated as following: [drawing 4] […]

[2] = In vivo pharmacokinetics study, tail vein; design: species or system SD rats; details: SD, rat, plasma; intravenous, 17 mg kg^−1 Cur, n = 3
Method: Pharmacokinetics were studied in SD rats. SD rats were randomly divided into three groups with each group of three rats. […] Blood samples (0.5 mL) were extracted from the rat orbital sinus into heparinized centrifuge tubes at 3, 5, 10, 15, 30, 45, 60, 120 min and then centrifuged at 8000 rpm for 5 min to obtain the upper plasma. After that, Cur in plasma samples were extracted by adding ethyl acetate and vertexing for 5 min, then centrifuged at 5000 rpm for 5 min to get supernatant. Finally, the amount of Cur in the supernatant was measured by high-performance liquid chromatography (HPLC) based on established analytical method (SI). Various pharmacokinetic parameters (AUC, MRT, t1/2, Cmax, CL, and V) were calculated according to the analysis of DAS3.0 software.

[3] = system: liver fibrosis; experiment: In vivo pharmacodynamic experiment, CCl4 liver fibrosis model; details: CCl4 mice, tail vein twice a week for eight weeks, Cur 17 mg kg^−1
Method: The mice were divided into five groups with five in each group randomly. The liver fibrosis model was established by injecting carbon tetrachloride (CCl4, 40% in olive oil, 1 mL kg^−1) intraperitoneally twice a week for four weeks. The mice were only administrated the same dosage of olive oil in control group. […] After treatment through veil tail, the mice were sacrificed and blood and livers were collected for the following study. After embedding in paraffin, the liver samples were cut into 5 μm slices. Then, liver slices were stained with hematoxylin–eosin staining (H&E) and Sirius Red staining solution for 2 h. After dehydration and fixation, the slices were observed and photographed by microscope.

[4] = In vitro release of curcumin, membrane dialysis; format: physicochemical; details: 30% ethanol in PBS pH7.4, 37 °C
Method: The membrane dialysis method was used for the drug release profile of CTPP–PEG–PCT. […] The end-sealed dialysis bag was placed in 30% ethanol in PBS (0.1 M, pH7.4) was used as dissolution medium at 37 °C, and medium was collected at determined time point. The amount of Cur released in the medium was monitored by UV-vis spectroscopy, and the experiments were repeated for three times.

- AUC(0-inf) [2]: 5610 ng·h/mL
- AUC(0-t) [2]: 5280 ng·h/mL
- Cmax [2]: 12900 ± 1510 ng/mL
- MRT [2]: 45.9 min
- clearance [2]: 50 ± 6 mL/min/kg
- half-life [2]: 48.1 ± 14.8 min
- in vitro drug release behaviour [4]: released quickly
SMILES: COc1cc(/C=C/C(=O)CC(=O)/C=C/c2ccc(O)c(OC)c2)ccc1O [Cur, Curcumin]
- hemolysis ratio [1]: less than 5%
- serum levels of AST and ALT vs saline group [3]: decreased significantly

From article PMC8694685 (RSC Advances, 2021)
